This note sets out measurements from ChEMBL document CHEMBL4665685, “Neuroprotective Effects of Triterpenoids from Camellia japonica against Amyloid β-Induced Neuronal Damage” (J Nat Prod, 2020).

Series [1] concerns HT-22. The series can be described thus: Cytotoxicity against mouse HT-22 cells assessed as reduction in cell viability at 40 uM after 24 hrs by MTT assay. Type of series: cell-based. The note with it: ht-22, 24 h. For orientation: Tetrazolium assays rely on reduction of a dye to a coloured formazan, in cell work by metabolically active cells.
Series [2] deals with HT-22. The series can be described thus: Neuroprotective activity against amyloid beta (1 to 42) transfected mouse HT-22 cells assessed as protection against amyloid-induced inflammation at 40 uM after 24 hrs by MTT assay. It is filed as functional, cell-based.
Series [3] deals with Beta-secretase 1 (Homo sapiens) (UniProt P56817). The experiment in a line: Inhibition of BACE1 (unknown origin) at 20 uM measured after 60 mins by FRET assay relative to control.
For series [4] the target is unchanged. The experiment in a line: Inhibition of BACE1 (unknown origin) at 10 uM measured after 60 mins by FRET assay.
In series [5] the test system is HT-22. The experiment in a line: Neuroprotective activity in mouse HT-22 cells assessed as reduction in amyloid beta (1 to 42 residues)-induced glutamate level at 40 uM after 24 hrs by fluorescence assay (reference value: 3.17). It is filed as functional.
In series [6] the test system is HT-22. The series can be described thus: Neuroprotective activity against glutamate-induced cell death in mouse HT22 cells assessed as increase in cell viability at 40 uM preincubated for 6 hrs followed by glutamate-challenge and measured after 16 hrs by MTT assay relative to control. Type of series: functional.
Series [7] relates to BV-2. The experiment in a line: Cytotoxicity against mouse BV2 cells assessed as reduction in cell viability at 40 uM after 18 hrs by MTT assay. It is filed as cell-based. Particulars: bv-2, 18 h.
For series [8], the system named is BV-2. The experiment in a line: Anti-neuroinflammatory activity in mouse BV-2 cells assessed as reduction in amyloid beta (1 to 42 residues)-induced nitric oxide at 40 uM after 18 hrs. Type of series: functional, cell-based.
Series [9] deals with HT-22. The experiment in a line: Neuroprotective activity against amyloid beta (1 to 42) transfected mouse HT22-ARE cells assessed as reversal of increase in antioxidant response element-luciferase activity at 40 uM after 18 hrs by reporter gene assay. Type of series: functional, cell-based. On the technique in general: Reporter assays use an easily measured gene product as a stand-in for the process of interest.

The subject of series [10] is HT-22. The experiment in a line: Neuroprotective activity against in amyloid beta (1 to 42) transfected mouse HT22 cells assessed as reduction in overexpression of the green fluorescent pEGFP-C1 gene at 40 uM after 24 hrs by reporter gene assay. It is filed as functional, cell-based.

Calls of active or inactive are those of the source. The calls are words filed in the database; no cut-off is given here.

Beta-secretase 1 (Homo sapiens), sequence (P56817 whole entry): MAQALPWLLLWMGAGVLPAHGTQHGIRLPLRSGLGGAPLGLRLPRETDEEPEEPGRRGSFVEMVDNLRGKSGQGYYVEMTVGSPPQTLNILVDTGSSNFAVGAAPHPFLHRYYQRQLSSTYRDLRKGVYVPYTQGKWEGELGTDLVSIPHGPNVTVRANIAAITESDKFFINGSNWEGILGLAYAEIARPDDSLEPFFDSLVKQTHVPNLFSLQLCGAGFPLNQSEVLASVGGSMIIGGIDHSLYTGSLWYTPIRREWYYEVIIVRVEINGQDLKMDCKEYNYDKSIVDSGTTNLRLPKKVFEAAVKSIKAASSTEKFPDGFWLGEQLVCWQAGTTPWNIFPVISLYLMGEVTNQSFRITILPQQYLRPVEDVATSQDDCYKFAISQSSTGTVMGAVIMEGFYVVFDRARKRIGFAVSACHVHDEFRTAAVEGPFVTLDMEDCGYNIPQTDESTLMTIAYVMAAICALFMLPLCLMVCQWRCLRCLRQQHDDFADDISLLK

Turning to `CO[C@@H]1C=C2[C@@H]3CC(C)(C)CC[C@]3(O)C(=O)C[C@@]2(C)[C@]2(C)CC[C@H]3C(C)(C)C(=O)C=C[C@]3(C)[C@@H]12`, the Activity entry in the series on HT-22 [1] was “Non-Toxic”; in the series with HT-22 [6], 73.8%; in the series on BV-2 [7] it was “Non-Toxic”. The outcome in the series with HT-22 [2], in the series on BV-2 [8], in the series on HT-22 [9] and with HT-22 [10] was Active. Moreover, the inhibition – broadly, how much of the control response was suppressed – in [3] is 61.3%. In series [4], the inhibition result was “Active”. In addition, in the series with HT-22 [5], the “fold change (FC)” value was 1.8.

Regarding `CO[C@@H]1C=C2[C@@H]3CC(C)(C)CC[C@]3(O)C(=O)C[C@@]2(C)[C@]2(C)CC[C@H]3C(C)(C)C(=O)C[C@@H](O)[C@]3(C)[C@@H]12`, the figures for the Activity entry in the series with HT-22 [1], in the series with HT-22 [6] and in the series with BV-2 [7] were “Non-Toxic”, 77% and “Non-Toxic”, respectively. The result in the series on HT-22 [2], in the series with BV-2 [8], in the series on HT-22 [9] and with HT-22 [10] was Active. Further, the inhibition in series [3] is 51.9%. Further, the inhibition result in series [4] was “Active”. Also, the “fold change (FC)” value with HT-22 [5] stood at 1.61.

On to `CC1(CO)CC[C@]2(O)C(=O)C[C@]3(C)C(=CC[C@@H]4[C@@]5(C)CCC(=O)C(C)(C)[C@@H]5CC[C@]43C)[C@@H]2C1` (stereo not given in full), for which the Activity result in the series with HT-22 [1] is recorded as “Non-Toxic”; in the series on HT-22 [6], 81.2%; with BV-2 [7] it was “Non-Toxic”. In addition, the outcome in the series with HT-22 [2], in the series on BV-2 [8], with HT-22 [9] and in the series with HT-22 [10] was Active. The compound also came in with an inhibition in [3] of 60.6%. Further, in [4], the inhibition result was “Active”. Also, in the series on HT-22 [5], the “fold change (FC)” value was found to be 1.81.

As for `CC1(C)CC[C@]2(O)C(=O)C[C@]3(C)C(=C[C@@H](O)[C@@H]4[C@@]5(C)[C@H](O)CC(=O)C(C)(C)[C@@H]5CC[C@]43C)[C@@H]2C1`, the Activity result in the series with HT-22 [1] is reported as “Non-Toxic”; with HT-22 [6], 78.1%; in the series with BV-2 [7], “Non-Toxic”. The result in the series on HT-22 [2], in the series on BV-2 [8], in the series on HT-22 [9] and in the series with HT-22 [10] was Active. The compound also had an inhibition in [3] of 51.1%. Further, the inhibition entry in series [4] is “Active”. In addition, the “fold change (FC)” value in the series with HT-22 [5] was 1.42.
